One test deals with T1, TbGSK3 short (Trypanosoma brucei brucei, UniProt Q388M1).
T1 sequence (Q388M1 1-352): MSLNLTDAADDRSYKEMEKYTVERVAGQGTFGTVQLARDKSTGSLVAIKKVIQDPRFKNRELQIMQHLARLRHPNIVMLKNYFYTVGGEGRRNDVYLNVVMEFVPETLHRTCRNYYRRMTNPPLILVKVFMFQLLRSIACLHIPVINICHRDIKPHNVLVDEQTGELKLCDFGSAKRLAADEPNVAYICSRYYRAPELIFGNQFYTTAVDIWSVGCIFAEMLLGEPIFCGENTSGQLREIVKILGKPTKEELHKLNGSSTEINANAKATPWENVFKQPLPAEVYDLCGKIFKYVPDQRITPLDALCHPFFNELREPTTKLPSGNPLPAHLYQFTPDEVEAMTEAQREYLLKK
Put plainly: Radiometric 96-well Flashplate potency assay, TbGSK3. The conditions noted are these: more potent than the unsubstituted phenyl compound 4f. Type of test: biochemical. The method, then:
(§1) For compound potency determinations, a radiometric 96-well Flashplate assay (PerkinElmer) was adopted. Compounds were solubilized in DMSO at a top concentration of 3 mM and serially diluted to achieve 10-point titration of final assay concentrations from 30 μM to 0.3 nM with a final DMSO concentration of 1% (v/v). The reaction mixtures contained 1 μM biotinylated GSP2 substrate, 1 μM ATP, 3.7 KBq/well [γ-33P]-ATP and 2.5 nM TbGSK3 in the TbGSK3 kinase assay buffer. GSK3 inhibitors were screened for selectivity assessment also against HsGSK3β. For HsGSK3 assay, the reaction mixes contained 1 μM biotinylated GSP2 substrate, 2 μM ATP, 7.4 KBq/well [γ-33P]-ATP and 15 nM HsGSK3β in the TbGSK3 kinase assay buffer (25 mM Tris-HCl, pH 7.5, 10 mM MgCl2, 5 mM DTT, 0.02% CHAPS, 2 U/mL heparin). For HsCDK2/cyclin A assay, the reaction mixtures contained 1 mM CDK5 biotinylated peptide substrate (Biotin-C6-PKTPKKAKKL), 1 μM ATP, 7.4 KBq/well [γ-^33P]-ATP and 2 nM HsCDK2/cyclin A in the kinase assay buffer (50 mM Tris-HCl, pH 7.5, 10 mM MgCl2, 2 mM DTT, 100 mM NaCl, 0.2 mM EGTA, 0.02% (v/v) Brij35).
The statistical significance of the compound potency (IC50) was based on the performance of standard molecules which have been tested to a high replication. In the case of TbGSK3 short assay, the standard compound GW8510 was tested 93 times across 9 independent runs. […] The minimum significant ratio (MSR) of 0.4 was evaluated considering the following formula: [drawing 1] where SD is the standard deviation and N the number of replicate values routinely used for the assay (2 in our case).[31] This implies that a difference of >0.4 in pIC50 can be considered statistically significant for this assay.

Test [1] concerns bloodstream form T. b. brucei. Put plainly: Trypanosome proliferation assay (resazurin). It is filed as cell-based. The conditions noted are these: Trypanosoma brucei, 72 h, concentration required to inhibit growth in culture by 50% over 72 h. The method, then:
Measurement of inhibition of the proliferation of MRC5 (human lung fibroblast) cells and T. b. brucei bloodstream stage cells was performed using a modification of the cell viability assay previously described.[33] Compounds (50 μM to 0.5 nM) were incubated with 2 × 10^3 cells/well in 0.2 mL of the appropriate culture medium (MEM with 10% fetal bovine serum for MRC5 cells) in clear 96-well plates. Plates were incubated at 37 °C in the presence of 5% CO2 for 69 h. Resazurin was then added to a final concentration of 50 μM, and plates were incubated as above for a further 4 h before being read on a BioTek flx800 fluorescent plate reader.
In general terms: The colour change of resazurin is a common sign of viable cells or microbes.

For the next test, the target named is HsGSK3β (Homo sapiens, UniProt P49841). Put plainly: Radiometric Flashplate potency assay, HsGSK3β. Type of test: biochemical. The following applies: ratio of IC50 values. The method, then: as §1
This implies that a difference of >0.3 in pIC50 can be considered statistically significant for this assay.

One compound from publication PMC4175002, “The Design and Synthesis of Potent and Selective Inhibitors of Trypanosoma brucei Glycogen Synthase Kinase 3 for the Treatment of Human African Trypanosomiasis” (Journal of Medicinal Chemistry, 2014) can be followed below.

Where only a bound is given, the exact number is not on record here.

Sequence of HsGSK3β (P49841 whole entry): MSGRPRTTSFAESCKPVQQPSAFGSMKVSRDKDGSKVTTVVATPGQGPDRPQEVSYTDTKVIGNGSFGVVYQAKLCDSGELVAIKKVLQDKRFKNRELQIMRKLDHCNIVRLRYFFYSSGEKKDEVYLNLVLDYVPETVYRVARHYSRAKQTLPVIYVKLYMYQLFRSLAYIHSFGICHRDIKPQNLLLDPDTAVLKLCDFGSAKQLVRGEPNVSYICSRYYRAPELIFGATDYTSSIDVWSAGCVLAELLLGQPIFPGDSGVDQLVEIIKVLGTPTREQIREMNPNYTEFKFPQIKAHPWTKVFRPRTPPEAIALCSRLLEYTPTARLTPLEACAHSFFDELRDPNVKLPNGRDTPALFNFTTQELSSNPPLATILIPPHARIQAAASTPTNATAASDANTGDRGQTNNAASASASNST

For the compound `COc1ccccc1C(=O)Nc1c[nH]nc1C(=O)N[C@H]1CC[C@H](OC)CC1` [Compound 4j, 4-(2-Methoxybenzamido)-N-(4-methoxycyclohexyl)-1H-pyrazole-3-carboxamide], at TbGSK3 short, the “TbGSK3 potency relative to 4f” value was “approximately 10 fold”. In test [1], the EC50 is under 1000 nM. Moreover, on HsGSK3β, the “ratio HsGSK3β/TbGSK3” value was under 3.3.
